These results are taken from ChEMBL document CHEMBL1201862, “PubChem BioAssay data set” (2004).

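Grown in 96-well plates, cells were treated for 48 hours with each compound at five concentrations. Insufficient inhibition: endpoint recorded as highest concentration tested. At the GI50, growth is halved.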 The source made the active and inactive calls. No stated cut-off is given here; in the data, active = GI50 up to about 1.1 µM and inactive = higher. Bounds are passed on as bounds.

Some test systems named below: A498; A549; COLO 205; EKVX; HCC 2998; HOP-62; HOP-92; IGROV-1; LOX IMVI; MCF7; MDA-MB-231; MOLT-4; OVCAR-4; OVCAR-5; PC-3; SF-539; U-251; UACC-62; UO-31; Malme-3M.
Holding throughout (assay): growth of human tumour cells (NCI), 48 h

Take `Nc1nncc2[nH]cnc12`: the GI50 is > 62.2 µM (inactive) in the experiment with A498; 44.7 µM (inactive) in the experiment with A549; 24.2 µM (inactive) with COLO 205; 52.1 µM (inactive) in the experiment on EKVX; > 100 µM (inactive) in the experiment on HCC 2998; > 100 µM (inactive) in the experiment on HOP-62. Moreover, the GI50 was > 100 µM (inactive) with HOP-92; 57.8 µM (inactive) in the experiment with IGROV-1; 25.5 µM (inactive) in the experiment on LOX IMVI; 23.4 µM (inactive) with MCF7; 99.5 µM (inactive) with MDA-MB-231; 10.1 µM (inactive) in the experiment with MOLT-4. The GI50 with OVCAR-4 is > 100 µM (inactive); in the experiment with OVCAR-5, 49.3 µM (inactive); in the experiment with PC-3, 69 µM (inactive); in the experiment with SF-539 it was 94.4 µM (inactive); with U-251, > 64.3 µM (inactive); with UACC-62 it was 47.3 µM (inactive). In addition, the GI50 in the experiment on UO-31 was > 100 µM (inactive).

For the compound `O=C(CCCC(=O)N1CC(CCl)c2ccc([N+](=O)[O-])cc21)N1CC(CCl)c2ccc([N+](=O)[O-])cc21` (configuration not stated), the GI50 in the experiment with A498 is 34 µM (inactive); with A549, 33.3 µM (inactive); in the experiment with COLO 205, > 100 µM (inactive); in the experiment with HCC 2998 it was 63.8 µM (inactive); with HOP-62 it was > 100 µM (inactive); with HOP-92, > 100 µM (inactive). The GI50 in the experiment on LOX IMVI, with MCF7, in the experiment with MDA-MB-231, in the experiment on MOLT-4, in the experiment with OVCAR-4 and in the experiment with OVCAR-5 was > 100 µM (inactive) throughout. The GI50 in the experiment with PC-3, in the experiment with SF-539, with U-251, in the experiment on UACC-62 and in the experiment with UO-31 was > 100 µM (inactive) throughout.

Take `Nc1ncnc2c1ncn2[C@@H]1O[C@H](COC(c2ccccc2)(c2ccccc2)c2ccccc2)[C@@H](OC(=S)Oc2ccccc2)[C@@H]1F`: the GI50 was 18.3 µM (inactive) in the experiment with A498; 15 µM (inactive) in the experiment on A549; 12.4 µM (inactive) in the experiment on COLO 205; 12.3 µM (inactive) with EKVX; 14 µM (inactive) in the experiment with HCC 2998; 15.5 µM (inactive) in the experiment with HOP-62. Besides, the GI50 in the experiment on HOP-92 is 8.43 µM (inactive); with IGROV-1 it was 3.23 µM (inactive); in the experiment with LOX IMVI, 3.88 µM (inactive); in the experiment on MCF7 it was 3.82 µM (inactive); in the experiment with MDA-MB-231, 10.7 µM (inactive); with MOLT-4 it was 2.51 µM (inactive). The GI50 in the experiment on OVCAR-4 is 9.08 µM (inactive); with OVCAR-5, 19.1 µM (inactive); with PC-3, 3.88 µM (inactive); in the experiment with SF-539, 8.99 µM (inactive); with U-251 it was 10.2 µM (inactive); with UACC-62 it was 13.7 µM (inactive). Besides, the GI50 in the experiment with UO-31 was 4.16 µM (inactive).

As for `c1cc(-c2ccc(-c3ccc(C4=NCCCN4)cc3)o2)ccc1C1=NCCCN1`, the GI50 in the experiment on A498 was 2.24 µM (inactive); in the experiment on A549, 8.2 µM (inactive); with COLO 205 it was 68.9 µM (inactive); in the experiment on EKVX it was 40.2 µM (inactive); in the experiment with HCC 2998, 92.9 µM (inactive); in the experiment with HOP-62, 47.8 µM (inactive). In addition, the GI50 in the experiment on HOP-92 was 32 µM (inactive); in the experiment on LOX IMVI, 37.4 µM (inactive); with MCF7, 88.7 µM (inactive); in the experiment with MDA-MB-231 it was > 100 µM (inactive); in the experiment on MOLT-4 it was > 100 µM (inactive); with Malme-3M, 49.4 µM (inactive). Besides, the GI50 in the experiment with OVCAR-4 is > 100 µM (inactive); in the experiment on OVCAR-5, > 100 µM (inactive); in the experiment with PC-3, 79.1 µM (inactive); in the experiment on SF-539 it was 87.5 µM (inactive); with U-251, 33.3 µM (inactive); in the experiment on UACC-62, 19 µM (inactive). The GI50 with UO-31 is > 100 µM (inactive).

On to `O=C(N/N=C(COc1cccc(Cl)c1)\N=C\c1cccnc1)c1ccncc1`, for which the GI50 is 40.6 µM (inactive) in the experiment on A498; > 100 µM (inactive) in the experiment with A549; 95.9 µM (inactive) in the experiment on COLO 205; > 100 µM (inactive) in the experiment with EKVX; > 100 µM (inactive) in the experiment with HCC 2998; > 100 µM (inactive) with HOP-62. In addition, the GI50 with HOP-92 was 24.9 µM (inactive); in the experiment with IGROV-1 it was > 100 µM (inactive); in the experiment with LOX IMVI, > 100 µM (inactive); in the experiment on MCF7 it was > 100 µM (inactive); in the experiment with MDA-MB-231 it was > 100 µM (inactive); in the experiment with MOLT-4, > 100 µM (inactive). In addition, the GI50 was > 100 µM (inactive) in the experiment on Malme-3M; 84.7 µM (inactive) with OVCAR-4; > 100 µM (inactive) with OVCAR-5; > 100 µM (inactive) with PC-3; > 100 µM (inactive) with SF-539; > 100 µM (inactive) in the experiment on U-251. Moreover, the GI50 in the experiment on UACC-62 is > 100 µM (inactive).

Regarding `COc1ccc(C(SCCO)(c2ccccc2)c2ccccc2)cc1`, the GI50 in the experiment on A498 was 17.2 µM (inactive); in the experiment with A549 it was 12.2 µM (inactive); with COLO 205, 14 µM (inactive); in the experiment on EKVX, 12.9 µM (inactive); with HCC 2998, 16.4 µM (inactive); in the experiment on HOP-62 it was 15.4 µM (inactive). The GI50 was 11 µM (inactive) with HOP-92; 18.1 µM (inactive) with LOX IMVI; 10.5 µM (inactive) in the experiment with MCF7; 14.3 µM (inactive) in the experiment with MDA-MB-231; 15.7 µM (inactive) with MOLT-4; 18.9 µM (inactive) in the experiment on Malme-3M. The GI50 with OVCAR-4 is 15.6 µM (inactive); in the experiment on OVCAR-5, 16.9 µM (inactive); with PC-3, 11.9 µM (inactive); in the experiment on SF-539 it was 15.6 µM (inactive); in the experiment on U-251 it was 13.1 µM (inactive); in the experiment with UACC-62, 14.3 µM (inactive). Besides, the GI50 in the experiment on UO-31 is 14.9 µM (inactive).

On to `CCOC(=O)C(CS)NC(=O)CCCCCCCC(=O)O` (configuration not stated), for which the GI50 in the experiment with A498, in the experiment on A549, in the experiment on COLO 205, with EKVX, in the experiment on HCC 2998 and in the experiment with HOP-62 was > 100 µM (inactive) throughout. Further, the GI50 in the experiment with HOP-92, with IGROV-1, in the experiment with LOX IMVI, in the experiment with MCF7, with MDA-MB-231 and in the experiment on MOLT-4 was > 100 µM (inactive) throughout. The GI50 with Malme-3M, in the experiment with OVCAR-4, in the experiment with OVCAR-5, with PC-3, in the experiment on U-251 and with UACC-62 was > 100 µM (inactive) each time. Also, the GI50 in the experiment with UO-31 was > 100 µM (inactive).

Turning to `CC1(C(O)c2ccccc2)CN(C(C)(C)C)C(=O)/C1=C\Sc1ccccc1` (configuration not stated), the GI50 is > 100 µM (inactive) in the experiment with A498; 20.2 µM (inactive) in the experiment on A549; 20.9 µM (inactive) with COLO 205; 83 µM (inactive) in the experiment with EKVX; 94.2 µM (inactive) in the experiment on HCC 2998; 99.1 µM (inactive) in the experiment on HOP-62. The GI50 is 1.88 µM (inactive) in the experiment on HOP-92; 33.3 µM (inactive) in the experiment with IGROV-1; 14.1 µM (inactive) in the experiment with LOX IMVI; 33.7 µM (inactive) with MCF7; 53 µM (inactive) in the experiment on MDA-MB-231; 19.2 µM (inactive) with MOLT-4. In addition, the GI50 in the experiment on OVCAR-4 was 27.4 µM (inactive); with OVCAR-5, > 100 µM (inactive); in the experiment with PC-3 it was 17.3 µM (inactive); with SF-539, > 100 µM (inactive); in the experiment on U-251, 22.6 µM (inactive); in the experiment with UACC-62 it was > 100 µM (inactive). Further, the GI50 with UO-31 is 29.7 µM (inactive).

Turning to `CCN(CC)c1nc(NC2CCCCC2)c2nc(N(CC)CC)nc(NC3CCCCC3)c2n1`, the GI50 with A498 is > 100 µM (inactive); in the experiment with A549, > 100 µM (inactive); in the experiment on EKVX, > 100 µM (inactive); with HCC 2998 it was > 100 µM (inactive); in the experiment with HOP-62, 73.1 µM (inactive); with HOP-92 it was 38.7 µM (inactive). For the same compound, the GI50 in the experiment on IGROV-1 is > 100 µM (inactive); in the experiment with MCF7 it was > 100 µM (inactive); in the experiment with MDA-MB-231 it was 88.1 µM (inactive); with MOLT-4, > 100 µM (inactive); in the experiment on Malme-3M, > 100 µM (inactive); in the experiment on OVCAR-5, > 100 µM (inactive). In addition, the GI50 in the experiment on PC-3 is > 100 µM (inactive); with SF-539, 29.5 µM (inactive); in the experiment with U-251, > 100 µM (inactive); with UACC-62, > 100 µM (inactive).

With `CCOC(=O)C1(Cc2ccccc2)Cc2ccccc2C1=O` (configuration not stated), the GI50 is 23.7 µM (inactive) in the experiment on A549; 19.6 µM (inactive) with COLO 205; 20.7 µM (inactive) in the experiment with EKVX; 34.4 µM (inactive) with HCC 2998; 35.2 µM (inactive) with HOP-62; 16.5 µM (inactive) with HOP-92. The GI50 in the experiment on IGROV-1 is 35.2 µM (inactive); with LOX IMVI it was 24.1 µM (inactive); in the experiment with MCF7, 33.8 µM (inactive); in the experiment with MDA-MB-231, 25.9 µM (inactive); in the experiment with MOLT-4 it was 19.6 µM (inactive); in the experiment on Malme-3M, 18.7 µM (inactive). Further, the GI50 in the experiment on OVCAR-4 is 18.7 µM (inactive); in the experiment with OVCAR-5 it was 30.4 µM (inactive); in the experiment on PC-3 it was 17.6 µM (inactive); in the experiment on SF-539, 35.1 µM (inactive); with U-251, 34.6 µM (inactive); with UACC-62, 20.8 µM (inactive). Besides, the GI50 in the experiment on UO-31 was 14.6 µM (inactive).

As to `COc1cccc2c1C(=O)c1c(O)c3c(c(O)c1C2=O)CC(O)(C(O)CO)CC3OC1CC(N2CCOCC2)C(O)C(C)O1` (configuration not stated), the GI50 in the experiment on A498 is 0.00135 µM (active); with A549, 0.00108 µM (active); with COLO 205 it was 0.00177 µM (active); in the experiment with EKVX, 0.00386 µM (active); with HCC 2998, < 0.001 µM (active); in the experiment on HOP-62, 0.00315 µM (active). In addition, the GI50 in the experiment on HOP-92 is 0.065 µM (active); in the experiment on IGROV-1 it was 0.00279 µM (active); with MCF7 it was 0.0223 µM (active); in the experiment with MDA-MB-231, 0.0165 µM (active); in the experiment on Malme-3M, 0.00251 µM (active); in the experiment on OVCAR-4 it was 0.00337 µM (active). Besides, the GI50 is 0.00475 µM (active) with OVCAR-5; 0.0123 µM (active) with PC-3; 0.0043 µM (active) in the experiment with SF-539; 0.0047 µM (active) in the experiment on U-251; < 0.001 µM (active) in the experiment on UACC-62.
